Assay results: ChEMBL document CHEMBL1201862, “PubChem BioAssay data set” (2004)
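Growth conditions: 96-well plates. Treatment: test compound, 48 hours, 5 concentrations. Analysis: linear interpolation between bracketing concentrations; unreached endpoints set to highest concentration. At the GI50, growth is halved.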 Active and inactive are the calls of the source. No stated cut-off is given here; in the data, active = GI50 up to about 1.1 µM and inactive = higher.

Tests used:
Assay in all cases: NCI anticancer screen, dose series, 48 h
SW-620 = tested on: SW-620
SK-MEL-5 = tested on: SK-MEL-5
SK-MEL-2 = tested on: SK-MEL-2
SNB-19 = tested on: SNB-19
SF-268 = tested on: SF-268
UACC-257 = tested on: UACC-257
U-251 = tested on: U-251
SK-OV-3 = tested on: SK-OV-3
HCT-116 = tested on: HCT-116
786-0 = tested on: 786-0
OVCAR-8 = tested on: OVCAR-8
OVCAR-4 = tested on: OVCAR-4
SF-539 = tested on: SF-539
MDA-MB-435 = tested on: MDA-MB-435
DU-145 = tested on: DU-145
KM12 = tested on: KM12
PC-3 = tested on: PC-3
OVCAR-3 = tested on: OVCAR-3
SNB-75 = tested on: SNB-75
CAKI-1 = tested on: CAKI-1
HCC 2998 = tested on: HCC 2998
HOP-62 = tested on: HOP-62
MDA-N = tested on: MDA-N
SF-295 = tested on: SF-295
LOX IMVI = tested on: LOX IMVI
UO-31 = tested on: UO-31
COLO 205 = tested on: COLO 205
BT-549 = tested on: BT-549
UACC-62 = tested on: UACC-62
ACHN = tested on: ACHN
HCT-15 = tested on: HCT-15
RXF 393 = tested on: RXF 393
Malme-3M = tested on: Malme-3M
OVCAR-5 = tested on: OVCAR-5
T47D = tested on: T47D
NCI-H522 = tested on: NCI-H522
TK-10 = tested on: TK-10
SK-MEL-28 = tested on: SK-MEL-28
MOLT-4 = tested on: MOLT-4
MCF7 = tested on: MCF7
SN12C = tested on: SN12C
HT-29 = tested on: HT-29
SR = tested on: SR
A549 = tested on: A549
M14 = tested on: M14
NCI-H226 = tested on: NCI-H226
NCI/ADR-RES = tested on: NCI/ADR-RES
EKVX = tested on: EKVX
NCI-H23 = tested on: NCI-H23
RPMI-8226 = tested on: RPMI-8226
IGROV-1 = tested on: IGROV-1
MDA-MB-231 = tested on: MDA-MB-231
K562 = tested on: K562
NCI-H460 = tested on: NCI-H460
HL-60 = tested on: HL-60
CCRF-CEM = tested on: CCRF-CEM

Measured: GI50

O=S1(=O)OCCCOS(=O)(=O)C1Br
> 100 µM: HCT-15
inactive: SW-620 > 100 µM | SK-MEL-5 > 100 µM | SK-MEL-2 > 100 µM | SNB-19 > 100 µM | SF-268 > 100 µM | UACC-257 > 100 µM | U-251 > 100 µM | SK-OV-3 > 100 µM | HCT-116 > 100 µM | 786-0 > 100 µM | OVCAR-8 > 100 µM | OVCAR-4 > 100 µM | SF-539 > 100 µM | MDA-MB-435 > 100 µM | DU-145 > 100 µM | KM12 > 100 µM | PC-3 > 100 µM | OVCAR-3 > 100 µM | SNB-75 > 100 µM | CAKI-1 > 100 µM | HCC 2998 > 100 µM | HOP-62 > 100 µM | MDA-N > 100 µM | SF-295 > 100 µM | LOX IMVI > 100 µM | UO-31 > 100 µM | COLO 205 > 100 µM | BT-549 > 100 µM | UACC-62 > 100 µM | ACHN > 100 µM | RXF 393 > 100 µM | Malme-3M > 100 µM | OVCAR-5 > 100 µM | T47D > 100 µM | NCI-H522 > 100 µM | TK-10 > 100 µM | SK-MEL-28 > 100 µM | MOLT-4 > 100 µM | MCF7 > 100 µM | SN12C > 100 µM | HT-29 > 100 µM | SR > 100 µM | A549 > 100 µM | M14 > 100 µM | NCI-H226 > 100 µM | NCI/ADR-RES > 100 µM | EKVX > 100 µM | NCI-H23 > 100 µM | RPMI-8226 > 100 µM

SCCSCCCSCCS
inactive: SW-620 > 100 µM | SK-MEL-5 > 100 µM | SNB-19 71.9 µM | SF-268 > 100 µM | UACC-257 59.3 µM | U-251 > 100 µM | SK-OV-3 > 100 µM | HCT-116 > 100 µM | 786-0 > 100 µM | OVCAR-8 > 100 µM | OVCAR-4 14 µM | SF-539 > 100 µM | MDA-MB-435 > 100 µM | IGROV-1 49.2 µM | DU-145 56.4 µM | KM12 > 100 µM | PC-3 20 µM | OVCAR-3 76.4 µM | SNB-75 59.3 µM | HCC 2998 > 100 µM | HOP-62 > 100 µM | MDA-N > 100 µM | SF-295 76.9 µM | LOX IMVI 47.5 µM | UO-31 15.7 µM | MDA-MB-231 91.6 µM | COLO 205 86.9 µM | BT-549 53.3 µM | UACC-62 > 100 µM | K562 92.7 µM | NCI-H460 31.1 µM | OVCAR-5 > 100 µM | T47D 50.2 µM | NCI-H522 19.3 µM | SK-MEL-28 > 100 µM | HL-60 9.31 µM | MOLT-4 4.97 µM | CCRF-CEM 10.5 µM | MCF7 70.8 µM | SN12C > 100 µM | HT-29 > 100 µM | SR 4.16 µM | A549 > 100 µM | M14 74.6 µM | NCI/ADR-RES > 100 µM | EKVX > 100 µM | NCI-H23 > 100 µM
> 100 µM: HCT-15
